Tested on: T1, AcAAT4
T1 construct: pET32a-His fusion, expressed in E. coli BL21, Ni-NTA purified; tag cleavage not mentioned
Assay: GC-MS of SPME-collected (Z)-3-hexenyl acetate, varied (Z)-3-hexenol
Assay type: biochemical, Acacia confusa
Conditions: acetyl-CoA co-substrate; 50 mM Tris-HCl pH 7.4 in methods (text: optimal conditions pH 7.5-8); 30 °C

Km: 54.6 µM
SMILES: CC/C=C\CCO [(Z)-3-hexenol]
